Several values for one entry are separate records, joined by “and”; a condition that tells them apart may be missing. Equal entries are not always repeated.

For series [1], the system named is breast cancer cell (MDA-MB 435S). The experiment in a line: Cell viability (calcein-AM / ethidium homodimer-1), MDA-MB 435S. As to conditions: Homo sapiens, MDA-MB-435S, 24 h. On the procedure:
(§1) Strains of cervical cancer cell (HeLa), kidney cancer cell (Caki-1), brain tumor cell (T98G), breast cancer cell (MDA-MB 435S), and colon cancer cell (DLD-1), multiple myeloma cell (RPMI-8226), and a strain of normal breast epithelial cell (MCF-10A) were available from ATCC (American Type Culture Collection, USA). The strains of cervical cancer cell (HeLa), kidney cancer cell (Caki-1), brain tumor cell (T98G), breast cancer cell (MDA-MB 435S), and colon cancer cell (DLD-1) were cultured by using a DMEM medium including 10% fetal bovine serum (FBS), 2 mM of L-glutamin, 100 i.u./ml of penicillin, and […] of streptomycin for the culture and maintenance; multiple myeloma cell (RPMI-8226) was cultured by using a RPMI1640 medium including 10% FBS, 100 i.u./ml of penicillin, and […] of streptomycin; and the strain of normal breast epithelial cell (MCF-10A) was cultured by using a mammary epithelial growth medium (MEGM) including a bovine pituitary extract, insulin, human epidermal growth factor, hydrocortisone, and antibiotics, and the culture conditions included 37° C. and 5% CO2 in an incubator.
(§2) Then, the cells were stained by using 2 μM calcein-AM and 4 μM ethidium homodimer-1, and cell viability was measured by using a fluorescent microscope (Axiovert 200M, available from Carl Zeiss, Jena, Germany).

For another series, the system named is brain tumor cell (T98G). The experiment in a line: Cell viability (calcein-AM / ethidium homodimer-1), T98G. As to conditions: 24 h. As to the method:
as §1, §2

Series [2] deals with multiple myeloma cell (RPMI-8226). As to the kind of experiment: Cell viability (calcein-AM / ethidium homodimer-1), RPMI-8226. As to conditions: Homo sapiens, RPMI-8226, 24 h, read-out: Cell viability. As to the method:
as §1, §2

Series [3] deals with colon cancer cell (DLD-1). As to the kind of experiment: Cell viability (calcein-AM / ethidium homodimer-1), DLD-1. As to conditions: Homo sapiens, DLD-1, 24 h, read-out: Cell viability. As to the method: as §1, §2
The test system of series [4] is normal breast epithelial cell (MCF-10A). As to the kind of experiment: Cell viability (calcein-AM / ethidium homodimer-1), MCF-10A. Conditions: MCF-10A, 24 h. On the procedure:
as §1, §2

Assay in series [5]: as above
As to conditions: human, Cell viability, MCF-10A, 24 h. As to the method:
as §1, §2

The subject of series [6] is kidney cancer cell (Caki-1). The experiment in a line: Cell viability (calcein-AM / ethidium homodimer-1), Caki-1. As to conditions: Homo sapiens, CAKI-1, 24 h. As to the method:
as §1, §2

Series [7] deals with cervical cancer cell (HeLa). As to the kind of experiment: Cell viability (calcein-AM / ethidium homodimer-1), HeLa. Conditions: 24 h. On the procedure: as §1, §2
[8] abbreviates: Homo sapiens, read-out: cell viability decreased.

A word on the viability: it is the share of living cells, or the viability signal relative to a control. With `CN(C)C(=O)C(CCN1CCC(O)(c2ccc(Cl)cc2)CC1)(c1ccccc1)c1ccccc1` [Loperamide], the viability at 10 µM was 100% in series [1] (read-out: Cell viability); 100% in the series with brain tumor cell (T98G) (Homo sapiens, read-out: Cell viability, T98G, loperamide 10 μM alone); 89.4% in series [2]; 100% in series [3]. The viability at 20 µM in series [1] (read-out: Cell viability) was 78%; in the series with brain tumor cell (T98G) (Homo sapiens, read-out: Cell viability, T98G, loperamide 20 μM alone), 99%; in series [3], 100%; in series [6] (read-out: Cell viability), 100%; in series [7] (Homo sapiens, read-out: Cell viability, HeLa, loperamide 20 μM alone), 99.7%. Besides, the cytotoxicity at 20 µM in series [1] (read-out: cell viability decreased, MDA-MB 435S, loperamide alone 20 μM) was about 22%; in the series on brain tumor cell (T98G) (setting [8]), about 10%. The Cell viability in the series with brain tumor cell (T98G) (loperamide 10 μM alone) is 94.43; in series [4] (loperamide 10 μM alone), 95.21 and 100.29 and 95.11; in series [4] (loperamide 20 μM alone), 99.25 and 94.65 and 100.37; in series [7] (loperamide 20 μM alone) it was 99.81. In addition, the cancer cell toxicity entry in the series on brain tumor cell (T98G) (loperamide alone up to 20 μM) was “did not exhibit significant cancer cell toxicity”. The viability at 5 µM in series [2] is 98.6%. Further, in series [5] (loperamide 10 μM alone), the viability at 24 h, 10 μM is 97.7%. In series [5] (loperamide 20 μM alone), the viability at 24 h, 20 μM was 94.6%. The viability at 40 µM was 65.1% in series [6] (read-out: Cell viability) and 75.1% in series [7] (Homo sapiens, read-out: Cell viability, HeLa, loperamide 40 μM alone). For the same compound, the cytotoxicity at 40 µM was about 35% in series [6] (read-out: cell viability decreased) and about 25% in series [7] (setting [8]).

(Values after patent publication US9931331B2 (priority 2013, dated 2018).)
